For one experiment, the system named is L-1210 leukemia. Description: L-1210 leukemia transplanted tumor in mice, life span. As to conditions: for Percent Increase In Life Span: over controls; for increase in life span: summary of Tables I and II, drug by itself, any dose level. The experiment is classed as in vivo. More on the design: Mean Life Span: unit not given here. As for the experimental part: In this procedure, L-1210 leukemia was maintained by weekly passage of 10^5 L-1210 cells intraperitoneally into DBA/2 mice. Diluted ascitic fluid, 0.1 ml. (10^5 cells), was administered up to female B6D2F, mice weighing about 20 g. Drugs were administered intraperitoneally to the animals. Injections containing doxorubicin were given only on day 2 and the 3,4-dihydroxybenzohydroxamic acid was given on days 2, 3 and 4.

A further experiment relates to L1210 leukemia. As to conditions: from Elford et al. and van't Riet et al. publications; cited from earlier work.

Counter-ions that a name gives are not always drawn.

`O=C(NO)c1ccc(O)c(O)c1` [3,4-dihydroxybenzohydroxamic acid]: the “Mean Life Span” value is given as 12.75 in the experiment on L-1210 leukemia (Table 1, 275 Mg./Kg. intraperitoneally, days 2, 3 and 4, four mice per group); 13.0 in the experiment on L-1210 leukemia (Table 1, 430 Mg./Kg. intraperitoneally, days 2, 3 and 4, four mice per group); “no better than control” in the experiment on L-1210 leukemia (Table 1, 645 Mg./Kg. intraperitoneally, days 2, 3 and 4, four mice per group); 11.0 with L-1210 leukemia (Table 1, 645 Mg./Kg. intraperitoneally, days 2, 3 and 4, four mice per group, listed as 3,4-dihydroxy benzohydroxamic acid); 12 with L-1210 leukemia (Table II, 430 Mg./Kg. intraperitoneally, days 2, 3 and 4, three mice per group); 13.6 in the experiment with L-1210 leukemia (Table II, 645 Mg./Kg. intraperitoneally, days 2, 3 and 4, three mice per group). The “Percent Increase In Life Span” value in the experiment on L-1210 leukemia (Table 1, 275 Mg./Kg. intraperitoneally, days 2, 3 and 4) was determined as 17%; with L-1210 leukemia (Table 1, 430 Mg./Kg. intraperitoneally, days 2, 3 and 4), 19%; in the experiment on L-1210 leukemia (Table 1, 645 Mg./Kg. intraperitoneally, days 2, 3 and 4), 1%; in the experiment on L-1210 leukemia (Table II, 430 Mg./Kg. intraperitoneally, days 2, 3 and 4), 32%; with L-1210 leukemia (Table II, 645 Mg./Kg. intraperitoneally, days 2, 3 and 4) it was 49%. The “Percent Cures” value in the experiment with L-1210 leukemia (Table 1, 275 Mg./Kg. intraperitoneally, days 2, 3 and 4, survivors calculated at day 60) is 0%; in the experiment on L-1210 leukemia (Table 1, 430 Mg./Kg. intraperitoneally, days 2, 3 and 4, survivors calculated at day 60), 0%; in the experiment on L-1210 leukemia (Table 1, 645 Mg./Kg. intraperitoneally, days 2, 3 and 4, survivors calculated at day 60), 0%; in the experiment on L-1210 leukemia (Table II, 430 Mg./Kg. intraperitoneally, days 2, 3 and 4, survivors calculated on day 35) it was 0%; with L-1210 leukemia (Table II, 645 Mg./Kg. intraperitoneally, days 2, 3 and 4, survivors calculated on day 35) it was 0%. In addition, the “increase in life span” value in the experiment on L-1210 leukemia was “very little increase in life span”. In addition, the “activity against L1210 leukemia” value in the experiment with L1210 leukemia was “the most active”.
Regarding `COc1cccc2c1C(=O)c1c(O)c3c(c(O)c1C2=O)C[C@@](O)(C(=O)CO)C[C@@H]3O[C@H]1C[C@H](N)[C@H](O)[C@H](C)O1` [Doxorubicin hydrochloride], the “Mean Life Span” value in the experiment on L-1210 leukemia (Table 1, 6 Mg./Kg. intraperitoneally, day 2, four mice per group) was 14.5; with L-1210 leukemia (Table 1, 17 Mg./Kg. intraperitoneally, day 2, four mice per group), 28.5; with L-1210 leukemia (Table 1, 29 Mg./Kg. intraperitoneally, day 2, four mice per group), 27.75; with L-1210 leukemia (Table II, 6 Mg./Kg. intraperitoneally, day 2, three mice per group) it was 13.3; in the experiment with L-1210 leukemia (Table II, 17 Mg./Kg. intraperitoneally, day 2, three mice per group), 16; in the experiment with L-1210 leukemia (Table II, 29 Mg./Kg. intraperitoneally, day 2, three mice per group) it was 26.3. The “Percent Increase In Life Span” value in the experiment with L-1210 leukemia (Table 1, 6 Mg./Kg. intraperitoneally, day 2) came to 33%; in the experiment on L-1210 leukemia (Table 1, 17 Mg./Kg. intraperitoneally, day 2) it was 161%; with L-1210 leukemia (Table 1, 29 Mg./Kg. intraperitoneally, day 2) it was 155%; in the experiment with L-1210 leukemia (Table II, 6 Mg./Kg. intraperitoneally, day 2), 46%; in the experiment with L-1210 leukemia (Table II, 17 Mg./Kg. intraperitoneally, day 2), 76%; in the experiment with L-1210 leukemia (Table II, 29 Mg./Kg. intraperitoneally, day 2) it was 189%. For the same molecule, the “Percent Cures” value in the experiment with L-1210 leukemia (Table 1, 6 Mg./Kg. intraperitoneally, day 2, survivors calculated at day 60) is listed as 0%; in the experiment on L-1210 leukemia (Table 1, 17 Mg./Kg. intraperitoneally, day 2, survivors calculated at day 60), 0%; in the experiment with L-1210 leukemia (Table 1, 29 Mg./Kg. intraperitoneally, day 2, survivors calculated at day 60), 0%; with L-1210 leukemia (Table II, 6 Mg./Kg. intraperitoneally, day 2, survivors calculated on day 35), 0%; with L-1210 leukemia (Table II, 17 Mg./Kg. intraperitoneally, day 2, survivors calculated on day 35), 0%; with L-1210 leukemia (Table II, 29 Mg./Kg. intraperitoneally, day 2, survivors calculated on day 35), 33%. For the same molecule, in the experiment on L-1210 leukemia, the “increase in life span” value was “substantial increase in life span”. The survivor result in the experiment on L-1210 leukemia (summary of Tables, by itself, at the highest dose level tested) is given as “one”.

These data come from EP0140958B1, “ONCOLYTIC DRUG COMBINATIONS” (ELFORD, Howard L., priority 1983, dated 1984).
